Data: patent US9417239B2, “Assay to determine LRRK2 activity in parkinson's disease” (PARKINSON'S INSTITUTE, priority 2011, dated 2016)

Key:
LRRK2 [1] = biological target: T1, LRRK2 (Homo sapiens, UniProt Q5S007, D2017A); conditions: cited from earlier work
T1 construct: expressed in transfected cells; host or cells: HEK293 Flp-in T-REx, doxycycline-induced

LRRK2 [2] = biological target: T2, LRRK2 (Homo sapiens, UniProt Q5S007); test: Immunoprecipitation of FLAG-tagged wild-type LRRK2 from treated HEK 293 cells, in vitro autophosphorylation kinase assay, phosphosite immunoblot; assay type: cell-based; conditions: transient expression, 1 μM LRRK2-IN1 for 90 minutes
T2 sequence (Q5S007 whole entry): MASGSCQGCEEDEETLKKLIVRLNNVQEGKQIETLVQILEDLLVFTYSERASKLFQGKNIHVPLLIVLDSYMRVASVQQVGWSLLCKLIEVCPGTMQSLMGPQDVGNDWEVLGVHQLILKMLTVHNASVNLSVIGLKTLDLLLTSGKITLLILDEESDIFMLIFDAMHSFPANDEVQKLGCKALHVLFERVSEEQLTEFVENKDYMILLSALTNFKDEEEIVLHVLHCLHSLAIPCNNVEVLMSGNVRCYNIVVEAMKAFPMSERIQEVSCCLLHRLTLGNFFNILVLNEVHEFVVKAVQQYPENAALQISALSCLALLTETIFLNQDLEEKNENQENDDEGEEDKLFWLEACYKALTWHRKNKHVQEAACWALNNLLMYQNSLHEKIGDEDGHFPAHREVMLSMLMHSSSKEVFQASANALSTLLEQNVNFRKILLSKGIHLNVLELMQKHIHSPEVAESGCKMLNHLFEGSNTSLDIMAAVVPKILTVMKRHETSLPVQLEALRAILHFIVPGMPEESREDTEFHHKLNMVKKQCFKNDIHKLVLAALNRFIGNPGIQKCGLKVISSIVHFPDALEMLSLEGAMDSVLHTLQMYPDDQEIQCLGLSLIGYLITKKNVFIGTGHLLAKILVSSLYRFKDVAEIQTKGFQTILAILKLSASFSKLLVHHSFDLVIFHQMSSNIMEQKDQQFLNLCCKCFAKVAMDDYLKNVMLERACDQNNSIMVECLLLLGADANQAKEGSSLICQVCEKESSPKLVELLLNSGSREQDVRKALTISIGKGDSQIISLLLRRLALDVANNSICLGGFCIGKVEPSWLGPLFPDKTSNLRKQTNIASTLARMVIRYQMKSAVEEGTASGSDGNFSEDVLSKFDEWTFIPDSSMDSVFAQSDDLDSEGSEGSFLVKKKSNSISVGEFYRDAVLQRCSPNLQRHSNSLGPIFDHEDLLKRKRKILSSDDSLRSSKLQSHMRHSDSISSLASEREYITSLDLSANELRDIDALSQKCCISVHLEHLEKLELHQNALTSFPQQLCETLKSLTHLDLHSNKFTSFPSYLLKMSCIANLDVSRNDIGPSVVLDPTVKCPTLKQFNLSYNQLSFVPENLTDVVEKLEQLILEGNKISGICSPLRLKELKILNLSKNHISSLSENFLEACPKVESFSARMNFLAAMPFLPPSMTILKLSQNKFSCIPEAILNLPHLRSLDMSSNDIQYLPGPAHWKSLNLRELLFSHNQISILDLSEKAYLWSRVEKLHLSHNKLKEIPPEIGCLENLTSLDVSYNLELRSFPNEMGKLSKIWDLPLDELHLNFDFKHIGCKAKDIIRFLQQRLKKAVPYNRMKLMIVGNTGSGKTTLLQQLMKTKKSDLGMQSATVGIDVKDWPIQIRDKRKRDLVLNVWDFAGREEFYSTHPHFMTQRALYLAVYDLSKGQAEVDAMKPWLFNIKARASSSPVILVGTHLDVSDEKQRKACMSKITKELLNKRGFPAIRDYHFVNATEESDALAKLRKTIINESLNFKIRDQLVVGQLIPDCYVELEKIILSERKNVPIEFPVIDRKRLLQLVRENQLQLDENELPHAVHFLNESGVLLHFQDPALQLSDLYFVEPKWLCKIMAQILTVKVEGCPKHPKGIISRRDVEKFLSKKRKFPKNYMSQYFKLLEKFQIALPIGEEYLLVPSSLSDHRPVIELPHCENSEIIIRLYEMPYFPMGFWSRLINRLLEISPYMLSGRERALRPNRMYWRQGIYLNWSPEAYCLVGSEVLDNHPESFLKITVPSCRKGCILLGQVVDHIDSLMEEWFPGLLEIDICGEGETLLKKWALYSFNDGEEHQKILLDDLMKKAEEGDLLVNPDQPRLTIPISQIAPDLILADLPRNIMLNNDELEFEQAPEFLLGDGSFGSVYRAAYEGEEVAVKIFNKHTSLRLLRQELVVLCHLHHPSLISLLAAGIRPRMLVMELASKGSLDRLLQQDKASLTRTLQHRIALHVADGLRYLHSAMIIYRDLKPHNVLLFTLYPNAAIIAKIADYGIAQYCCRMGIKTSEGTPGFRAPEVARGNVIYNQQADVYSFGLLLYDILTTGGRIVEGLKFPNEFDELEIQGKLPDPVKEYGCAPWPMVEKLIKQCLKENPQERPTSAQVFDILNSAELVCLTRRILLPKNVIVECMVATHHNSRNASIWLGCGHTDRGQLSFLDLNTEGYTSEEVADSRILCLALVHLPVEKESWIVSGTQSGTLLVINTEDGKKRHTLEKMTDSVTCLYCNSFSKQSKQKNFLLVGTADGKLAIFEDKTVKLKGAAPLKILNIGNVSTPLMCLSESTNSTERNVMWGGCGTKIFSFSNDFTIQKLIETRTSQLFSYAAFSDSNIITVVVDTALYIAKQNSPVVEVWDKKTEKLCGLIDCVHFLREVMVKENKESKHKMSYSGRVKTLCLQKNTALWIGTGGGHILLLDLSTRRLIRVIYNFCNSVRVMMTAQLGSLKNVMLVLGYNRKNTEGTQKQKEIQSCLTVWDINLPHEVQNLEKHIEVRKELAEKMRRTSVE
From the text: Immunoprecipitates were extensively washed then subjected to in vitro kinase assay in the presence or absence of ATP,in the presence or absence of LRRK2-1N1. Reaction products were immunoblotted with antiphospho-Ser1491 (αpThr1491), anti-phospho-Ser910 (αpS910), anti-phospho-Ser935 (αpS935), anti-phospho-Ser955 (αpS955), and anti-phospho-Ser973 (αpS973) antibodies.
Immunoprecipitation Kinase Assay conditions. Wild-type LRRK2 was transiently expressed in HEK293 cells using polyethylenimine for approximately 36 hours, then cells were treated with DMSO or 1 μM LRRK2-IN1 for 90 minutes. Lysates were then subjected to immunoprecipitation with anti-FLAG M2 agarose at a ratio of 1 μl beads per 100 μg of lysate for 2 hours.

14-3-3 binding to LRRK2 = 14-3-3 binding to LRRK2 (Homo sapiens, UniProt Q5S007); test: 14-3-3 overlay (far-western) assay of immunoprecipitated GFP-LRRK2; assay type: cell-based; conditions: 1 μM LRRK2-IN1 for 90 minutes
14-3-3 binding to LRRK2, sequence (Q5S007 whole entry): as above
Description: The indicated variants of full-length GFP-tagged LRRK2 were expressed from a stable and inducible locus in HEK293 T-REx cells and subjected to immunoprecipitation analysis. Immunoprecipitates were subjected to immunoblot analysis with anti-GFP, and anti-phospho-Ser910 (αpS910), anti-phospho-Ser935 (αpS935), anti-phospho-Ser955 (αpS955), and anti-phospho-Ser973 (αpS973) antibodies. 14-3-3 binding to the LRRK2 variants was assessed by 14-3-3 far-western blot analyses. All blots were co-probed with phospho antibody and GFP (total protein) monoclonal antibody and analyzed by Odyssey® LI-COR analysis; a representative total GFP blot is shown.
The Nanotrap GFP-Trap_A matrix was from ChromoTek (GTA-20). […] LiCOR Dyelight labelled 14-3-3 protein (recombinant, His tagged BMH1, a kind gift of Dr. Dario Alessi) was prepared as per the manufacturer's instructions and used to detect 14-3-3 binding. […] Fluorescent secondary antibodies were from Li-COR (Lincoln Nebr.) or Rockland immunochemicals (Rockland Ill.) LRRK2 Immunoprecipitation assays. Cell lysates were prepared in Lysis buffer (1.0 ml per 15 cm dish) and subjected to immunoprecipitation with GFP-trapA beads at 10 ul beads per 1.0 ml lysate for 1 hr. […]

GFP-LRRK2 = test: Fluorescence microscopy of GFP-LRRK2 localization in HEK-293 Flp-in T-REx cells; assay type: cell-based, human; conditions: wild-type GFP-LRRK2; 1 μM LRRK2-IN1 for 90 minutes
Description: T-REx cells lines harboring the indicated LRRK2 variants were induced for 24 h with 1 μg/ml doxycycline to induce expression of GFP-LRRK2. After induction, cells were exposed to vehicle control (DMSO) or 1 μM LRRK2-IN1 for 90 minutes, then fixed with paraformaldehyde and GFP fluorescence was imaged. Representative fluorescent micrographs of cultures for the indicated phosphosite mutants in the presence and absence of inhibitor are shown, localization analysis was performed at least three times. White scale bar represents 10 microns.
HEK-293 Flp-in T-REx cells harbouring GFP tagged LRRK2 and PD associated mutations were plated in 4-well glass bottom, CC2 coated chamber slides (Nunc). One day after plating, cells were induced with 1 μg/ml doxycycline and 24 hr later, cells were fixed in 4% paraformaldehyde buffered in phosphate buffered saline (purchased from Electron Microscopy Sciences, #15710). Cells were imaged under on a Nikon TiE microscope with a 60× objective.

LRRK2 [3] = test: Western blot of LRRK2 phosphorylation sites, FLAG tagged LRRK2 in HEK293 T-Rex cells (FIG. 4); assay type: cell-based, human; conditions: kinase dead and inhibitor resistant mutant samples
From the text: Full length, FLAG tagged, wild-type or mutant LRRK2 (as indicated in FIG. 4) was expressed from a stable/inducible locus of HEK293 T-Rex cells (Invitrogen).

LRRK2 [4] = biological target: T1, LRRK2; test: Immunoblot of LRRK2 phosphosites after GFP immunoprecipitation from HEK293 T-REx cells expressing GFP-LRRK2 variants; assay type: cell-based; conditions: kinase inactive LRRK2 mutants; after LRRK2-IN1 treatment
Description: (§1) Protein concentrations were determined using the Bradford method with BSA as the standard.

LRRK2 [5] = biological target: T2, LRRK2; test: as above; assay type: cell-based; conditions: T-REx cells expressing active LRRK2; 1 μM LRRK2-IN1 for 90 minutes
Description: as §1

T1 sequence (Q5S007 whole entry D2017A): as the sequence (Q5S007 whole entry) above, with D2017A counted along it

Structure (SMILES)	basal level of LRRK2 phosphorylation at 910/935 in kinase inactive mutants (LRRK2 [1])	phosphorylation of Ser910, Ser935, Ser955 and Ser973 of FLAG tagged wild-type LRRK2 (LRRK2 [2])	direct 14-3-3 association with LRRK2 (14-3-3 binding to LRRK2)	localization of GFP tagged LRRK2 (GFP-LRRK2)	specificity of the inhibitor effects on phosphorylation of serines 955 and 973 (LRRK2 [3])	phosphorylation of Serines 910 and 935 or 955 and 973 in kinase inactive mutants (LRRK2 [4])	phosphorylation of Serines 910/935 (LRRK2 [5])	phosphorylation of Serines 955 and 973 (LRRK2 [5])
Cc1cncc2cccc(S(=O)(=O)N3CCCNC[C@@H]3C)c12 [H-1152]	did not perturb	–	–	–	–	–	–	–
COc1cc(C(=O)N2CCC(N3CCN(C)CC3)CC2)ccc1Nc1ncc2c(n1)N(C)c1ccccc1C(=O)N2C [LRRK2-IN1]	–	dephosphorylated at the corresponding residues	reduced direct 14-3-3 association	re-localization of the GFP tagged enzyme to intracellular puncta, large accumulations and microtubule like structures	specific to LRRK2	no change was observed	complete dephosphorylation	dephosphorylation
